According to patent US20260097115A1 (priority 2023, published 2026):

Columns and labels:
Type in all cases: cell-based, human
[1] = system: HLA-II complexes of A549/ATC and HEK293T/ATC cells
[2] = system: HLA-II complexes (HLA-DR, HLA-DP, HLA-DQ) of A549/ATC cells
[3] = system: HLA-II complexes (HLA-DR, HLA-DP, HLA-DQ) of HEK293T/ATC cells

In the case of AALQIPFAMQMAYRENGIG [S:892-910], the “Unique peptides in segment” value [1] is reported as 11, the “Unique A549 peptides in segment” value [2] is reported as 0 and the “Unique HEK293T peptides in segment” value [3] is reported as 11.
For ALHFLLFFRALPKS [ORF3a.iORF1: 28-41], the “Unique peptides in segment” value [1] was 1, the “Unique A549 peptides in segment” value [2] was 0 and the “Detection as HLA-II peptide by LC-MS/MS” value [3] was “observed in the same fraction (fxn 3) in two biological replicates”. The “Unique HEK293T peptides in segment” value [3] was 1.
In the case of ATREASVYAWNRKRISN [S:344-360], the “Unique peptides in segment” value [1] is reported as 3, the “Unique A549 peptides in segment” value [2] is reported as 0 and the “Unique HEK293T peptides in segment” value [3] is reported as 3.
In the case of “CSNLLLQYGSFCTQLNRALTGIAVEQDKNTQE [S:749-780]”, the “Unique peptides in segment” value [1] is reported as 10, the “Unique A549 peptides in segment” value [2] is reported as 0 and the “Unique HEK293T peptides in segment” value [3] is reported as 10.
With DGSEDNQTTTIQTIVE [nsp3: 174-189] the “Unique peptides in segment” value [1] was 1, the “Unique A549 peptides in segment” value [2] was 0 and the “Unique HEK293T peptides in segment” value [3] was 1.
DSFVIRGDEVRQIAPG [S:398-413] was tested, and the “Unique peptides in segment” value [1] was 1, the “Unique A549 peptides in segment” value [2] was 0 and the “Unique HEK293T peptides in segment” value [3] was 1.
In the case of EPQIITTDNTFVSGN [S:1111-1125], the “Unique peptides in segment” value [1] is reported as 1, the “Unique A549 peptides in segment” value [2] is reported as 1 and the “Unique HEK293T peptides in segment” value [3] is reported as 0.
For IAQFAPSASAFFG [N: 304-316], the “Unique peptides in segment” value [1] was 1, the “Unique A549 peptides in segment” value [2] was 1 and the “Unique HEK293T peptides in segment” value [3] was 0.
ICASYQTQTNSPRRA [S:670-684] was tested, and the “Unique peptides in segment” value [1] was 1, the “Unique A549 peptides in segment” value [2] was 0 and the “Unique HEK293T peptides in segment” value [3] was 1.
INITRFQTLLALHRSYL [S: 233-249] was tested, and the “Unique peptides in segment” value [1] was 1, the “Unique A549 peptides in segment” value [2] was 0 and the “Unique HEK293T peptides in segment” value [3] was 1.
In the case of “KKKADETQALPQRQKKQQTVTLLPAADLDDESKQLQQSMSSADSTQA [N: 373-419]”, the “Unique peptides in segment” value [1] is reported as 69, the “Unique A549 peptides in segment” value [2] is reported as 5 and the “Unique HEK293T peptides in segment” value [3] is reported as 69.
For “MAGNGGDAALALLLLDRLNQLESKMSGKGQQQQGQTVT [N: 210-247]”, the “Unique peptides in segment” value [1] was 21, the “Unique A549 peptides in segment” value [2] was 21 and the “Unique HEK293T peptides in segment” value [3] was 0.
For MDGSIIQFPNTYLEGSVR [nsp4: 194-211], the “Unique peptides in segment” value [1] was 5, the “Unique A549 peptides in segment” value [2] was 0 and the “Unique HEK293T peptides in segment” value [3] was 5.
For “MDLFMRIFTIGTVTLKQGEIKDATPSDF [ORF3a: 1-28]”, the “Unique peptides in segment” value [1] was 4, the “Unique A549 peptides in segment” value [2] was 1 and the “Unique HEK293T peptides in segment” value [3] was 4.
In the case of “MDPKISEMHPALRLVDPQIQLAVTRMENA [ORF9b: 1-29]”, the “Unique peptides in segment” value [1] is reported as 8, the “Unique A549 peptides in segment” value [2] is reported as 0 and the “Unique HEK293T peptides in segment” value [3] is reported as 8.
For “NVPLHGTILTRPLLESELVIGAVILRGHLRIAGHHLGRCDIKDLPKEITVA [M: 121-171]”, the “Unique peptides in segment” value [1] was 34, the “Unique A549 peptides in segment” value [2] was 16 and the “Unique HEK293T peptides in segment” value [3] was 18.
With “RIGMEVTPSGTWLTYTGAIKLDDKDPNEKDQVILLNKHIDAYKTEPP [N: 319-365]” the “Unique peptides in segment” value [1] was 44, the “Unique A549 peptides in segment” value [2] was 36 and the “Unique HEK293T peptides in segment” value [3] was 17.
In the case of SDNGPQNQRNAPRITE [N: 2-17], the “Unique peptides in segment” value [1] is reported as 1, the “Unique A549 peptides in segment” value [2] is reported as 1 and the “Unique HEK293T peptides in segment” value [3] is reported as 0.
In the case of SPDAVTAYNGYLTSSSK [nsp3: 661-677], the “Unique peptides in segment” value [1] is reported as 1, the “Unique A549 peptides in segment” value [2] is reported as 0 and the “Unique HEK293T peptides in segment” value [3] is reported as 1.
For SVASQSIIAYTMSLGAEN [S:686-703], the “Unique peptides in segment” value [1] was 3, the “Unique A549 peptides in segment” value [2] was 0 and the “Unique HEK293T peptides in segment” value [3] was 3.
TDHSSSSDNIALLVQ [M: 208-222] was tested, and the “Unique peptides in segment” value [1] was 2, the “Unique A549 peptides in segment” value [2] was 2 and the “Unique HEK293T peptides in segment” value [3] was 2.
TEIYQAGSTPCNGVEG [S:470-485] was tested, and the “Unique peptides in segment” value [1] was 2, the “Unique A549 peptides in segment” value [2] was 0 and the “Unique HEK293T peptides in segment” value [3] was 2.
In the case of TGPEAGLPYGANKDG [N: 115-129], the “Unique peptides in segment” value [1] is reported as 1, the “Unique A549 peptides in segment” value [2] is reported as 1 and the “Unique HEK293T peptides in segment” value [3] is reported as 0.
For TPTWRVYSTGSNVFQTRAG [S:630-648], the “Unique peptides in segment” value [1] was 3, the “Unique A549 peptides in segment” value [2] was 1 and the “Unique HEK293T peptides in segment” value [3] was 2.
For “TQLPPAYTNSFTRGVYYPDKVERSSVLHSTQDLFLPFFS [S: 22-60]”, the “Unique peptides in segment” value [1] was 13, the “Unique A549 peptides in segment” value [2] was 13 and the “Unique HEK293T peptides in segment” value [3] was 0.
With TQQLIRAAEIRASANLA [S:1009-1025] the “Unique peptides in segment” value [1] was 14, the “Unique A549 peptides in segment” value [2] was 0 and the “Unique HEK293T peptides in segment” value [3] was 14.
For TVEKGIYQTSNERVQPTES [S:307-325], the “Unique peptides in segment” value [1] was 4, the “Unique A549 peptides in segment” value [2] was 3 and the “Unique HEK293T peptides in segment” value [3] was 3.
With VGPKVYPIILRLGSPLS [ORF9b: 37-53] the “Unique peptides in segment” value [1] was 2, the “Unique A549 peptides in segment” value [2] was 0 and the “Unique HEK293T peptides in segment” value [3] was 2.
For YIINLIIKNLSKS [ORF6: 31-43], the “Unique peptides in segment” value [1] was 1, the “Unique A549 peptides in segment” value [2] was 1 and the “Unique HEK293T peptides in segment” value [3] was 0.
